The values below come from PubChem BioAssay AID248 (DTP/NCI, 2004).

The test concerns L1210 leukemia ip in BDF1 mice, survival T/C. The test is described as follows: NCI In Vivo Anticancer Drug Screen. Data for tumor model L1210 Leukemia (intraperitoneal) in B6D2F1 (BDF1) mice. The settings on record: endpoint: mean survival time, higher = longer survival. In a few lines: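 Ratio derived from survival: compound-dosed mice over vehicle-dosed mice, all bearing a transplantable tumor.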

The mark [1] stands for this setting: dose: 100.0 mg/kg/injection, schedule: Q01DX001 (ip), vehicle: Klucel (hydroxypropylcellulose) (HPC).
Setting [2] is: dose: 100.0 mg/kg/injection, schedule: Q04DX003 (ip), vehicle: Klucel (hydroxypropylcellulose) (HPC).
Where [3] appears, read: dose: 200.0 mg/kg/injection, schedule: Q01DX001 (ip), vehicle: Klucel (hydroxypropylcellulose) (HPC).
The mark [4] stands for this setting: dose: 200.0 mg/kg/injection, schedule: Q04DX003 (ip), vehicle: Klucel (hydroxypropylcellulose) (HPC).
Where [5] appears, read: dose: 400.0 mg/kg/injection, schedule: Q04DX003 (ip), vehicle: Klucel (hydroxypropylcellulose) (HPC).
Where [6] appears, read: dose: 100.0 mg/kg/injection, schedule: Q01DX001 (ip), vehicle: saline.
The mark [7] stands for this setting: dose: 100.0 mg/kg/injection, schedule: Q04DX003 (ip), vehicle: saline.
[8] abbreviates: dose: 200.0 mg/kg/injection, schedule: Q01DX001 (ip), vehicle: saline.
Setting [9] is: dose: 200.0 mg/kg/injection, schedule: Q04DX003 (ip), vehicle: saline.
Setting [10] is: dose: 400.0 mg/kg/injection, schedule: Q01DX001 (ip), vehicle: saline.
Where [11] appears, read: dose: 400.0 mg/kg/injection, schedule: Q04DX003 (ip), vehicle: saline.
Where [12] appears, read: dose: 100.0 mg/kg/injection, schedule: Q01DX009 (ip), vehicle: Klucel (hydroxypropylcellulose) (HPC).
Setting [13] is: dose: 100.0 mg/kg/injection, schedule: Q04DX003 (ip), vehicle: saline with Tween-80.
[14] abbreviates: dose: 200.0 mg/kg/injection, schedule: Q04DX003 (ip), vehicle: saline with Tween-80.

SMILES strings stand for the structures. Inconclusive results and toxic doses are left out.

For `Cc1c2cnccc2c(C)c2c1c1ccccc1n2CCCCl`, the T/C was 102 % of control under setting [1]; 96 % of control under setting [2]; 96 % of control under setting [3]; 94 % of control under setting [4]; 94 % of control (dose: 400.0 mg/kg/injection, schedule: Q01DX001 (ip), vehicle: Klucel (hydroxypropylcellulose) (HPC)); 96 % of control under setting [5].

For the molecule `Oc1cccc(C(c2ccccc2)c2ccccc2)c1`, the T/C (dose: 100.0 mg/kg/injection, schedule: Q01DX001 (ip), vehicle: saline with Tween-80) was 94 % of control and the T/C (dose: 200.0 mg/kg/injection, schedule: Q01DX001 (ip), vehicle: saline with Tween-80) is 94 % of control.

As to `O=S1(=O)C(Cc2ccccc2)CCC1Cc1ccccc1` (centres undefined), the T/C under setting [2] was 102 % of control, the T/C under setting [4] is 94 % of control and the T/C under setting [5] is 102 % of control.

With `On1cnc(=S)c2[nH]cnc21`, the T/C (dose: 100.0 mg/kg/injection, schedule: Q01DX001 (ip), vehicle: carboxymethylcellulose (CMC)) is 98 % of control; the T/C (dose: 200.0 mg/kg/injection, schedule: Q01DX001 (ip), vehicle: carboxymethylcellulose (CMC)) is 98 % of control; the T/C (dose: 250.0 mg/kg/injection, schedule: Q01DX Z (ip), vehicle: carboxymethylcellulose (CMC)) is 112 % of control; the T/C (dose: 400.0 mg/kg/injection, schedule: Q01DX001 (ip), vehicle: carboxymethylcellulose (CMC)) is 98 % of control; the T/C (dose: 500.0 mg/kg/injection, schedule: Q01DX001 (ip), vehicle: carboxymethylcellulose (CMC)) is 100 % of control; the T/C (dose: 750.0 mg/kg/injection, schedule: Q01DX001 (ip), vehicle: carboxymethylcellulose (CMC)) is 113 % of control. Also, the T/C reads like this: (dose: 750.0 mg/kg/injection, schedule: Q01DX Z (ip), vehicle: carboxymethylcellulose (CMC)) 156 % of control; (dose: 1000.0 mg/kg/injection, schedule: Q01DX001 (ip), vehicle: carboxymethylcellulose (CMC)) 117 % of control.

In the case of `Clc1cccc(Cl)c1C[n+]1ccccc1`, the T/C (dose: 9.38 mg/kg/injection, schedule: Q01DX001 (ip), vehicle: saline) was 110 % of control and the T/C (dose: 18.75 mg/kg/injection, schedule: Q01DX001 (ip), vehicle: saline) was 110 % of control.

`COc1ccc(/C=C2\N=C(c3ccccc3)OC2=O)cc1`: the T/C is, setting by setting: under setting [6], 94 % of control; under setting [7], 98 % of control; under setting [8], 95 % of control; under setting [9], 93 % of control; under setting [10], 94 % of control; under setting [11], 93 % of control.

For the molecule `N/C(Cc1ccc([N+](=O)[O-])cc1)=N\O`, the T/C is, setting by setting: (dose: 25.0 mg/kg/injection, schedule: Q01DX009 (ip), vehicle: Klucel (hydroxypropylcellulose) (HPC)) 100 % of control; (dose: 50.0 mg/kg/injection, schedule: Q01DX009 (ip), vehicle: Klucel (hydroxypropylcellulose) (HPC)) 91 % of control; under setting [12], 100 % of control.

As to `CC(C)C1(c2ccsc2)NC(=O)NC1=O` (centres undefined), the T/C under setting [6] is 94 % of control, the T/C under setting [8] was 100 % of control and the T/C under setting [10] was 91 % of control.

With `Cc1c(C)c2nc3ccccc3nc2c2ccccc12`, the T/C is 98 % of control (dose: 50.0 mg/kg/injection, schedule: Q01DX001 (ip), vehicle: Klucel (hydroxypropylcellulose) (HPC)); 95 % of control under setting [1]; 95 % of control under setting [3].

Consider `Clc1ccc([S][Pb]([c]2ccccc2)([c]2ccccc2)[c]2ccccc2)cc1`, for which the T/C reads like this: (dose: 100.0 mg/kg/injection, schedule: Q04DX002 (ip), vehicle: gum acacia) 88 % of control; (dose: 200.0 mg/kg/injection, schedule: Q04DX002 (ip), vehicle: gum acacia) 91 % of control.

On to `CC(=O)c1ccc2c(c1)-c1ccccc1C(=O)C2=O`, for which the T/C runs as follows: under setting [13], 89 % of control; under setting [14], 94 % of control; (dose: 400.0 mg/kg/injection, schedule: Q04DX003 (ip), vehicle: saline with Tween-80) 91 % of control.

Consider `Cc1cc[n+](C)c2ccccc12`, for which the T/C (dose: 9.37 mg/kg/injection, schedule: Q01DX009 (ip), vehicle: saline with Tween-80) is 101 % of control; the T/C (dose: 18.75 mg/kg/injection, schedule: Q01DX009 (ip), vehicle: saline with Tween-80) is 112 % of control; the T/C (dose: 37.5 mg/kg/injection, schedule: Q01DX009 (ip), vehicle: saline with Tween-80) was 100 % of control; the T/C (dose: 37.5 mg/kg/injection, schedule: Q04DX003 (ip), vehicle: saline) is 100 % of control; the T/C (dose: 75.0 mg/kg/injection, schedule: Q01DX001 (ip), vehicle: saline) was 103 % of control.

For the molecule `O=C(O)c1cccc(Cl)c1.[Ni]`, the T/C by setting is: (dose: 25.0 mg/kg/injection, schedule: Q04DX002 (ip), vehicle: Klucel (hydroxypropylcellulose) (HPC)) 103 % of control; (dose: 50.0 mg/kg/injection, schedule: Q04DX002 (ip), vehicle: Klucel (hydroxypropylcellulose) (HPC)) 100 % of control; (dose: 100.0 mg/kg/injection, schedule: Q04DX002 (ip), vehicle: Klucel (hydroxypropylcellulose) (HPC)) 90 % of control.

`CN(C)c1nnnn1-c1ccccc1`: the T/C is 100 % of control under setting [7], 96 % of control under setting [9] and 105 % of control under setting [11].

As for `CN(C)/N=C\c1ccc(C(=O)O)cc1`, the T/C runs as follows: (dose: 50.0 mg/kg/injection, schedule: Q04DX003 (ip), vehicle: Klucel (hydroxypropylcellulose) (HPC)) 92 % of control; (dose: 50.0 mg/kg/injection, schedule: Q04DX003 (ip), vehicle: saline) 114 % of control; under setting [2], 88 % of control; under setting [7], 109 % of control; under setting [4], 95 % of control; under setting [9], 114 % of control. In addition, the T/C by setting is: under setting [5], 93 % of control; under setting [11], 100 % of control.

For `COC(=O)c1ccccc1NC(=O)c1cccc(F)c1`, the T/C under setting [12] is 95 % of control; the T/C (dose: 200.0 mg/kg/injection, schedule: Q01DX009 (ip), vehicle: Klucel (hydroxypropylcellulose) (HPC)) is 105 % of control; the T/C (dose: 400.0 mg/kg/injection, schedule: Q01DX009 (ip), vehicle: Klucel (hydroxypropylcellulose) (HPC)) is 103 % of control.

With `CN(C)C(=O)NN1CCCCCC1`, the T/C is, setting by setting: under setting [7], 96 % of control; under setting [9], 96 % of control; under setting [11], 100 % of control.

On to `NC1C2C(CC(=O)O)OCC=C3CN4CCC1(C(=O)C(=O)O)C4CC32` (centres undefined), for which the T/C (dose: 0.5 mg/kg/injection, schedule: Q01DX001 (ip), vehicle: saline) is 101 % of control; the T/C (dose: 1.0 mg/kg/injection, schedule: Q01DX001 (ip), vehicle: saline) was 101 % of control; the T/C (dose: 2.0 mg/kg/injection, schedule: Q01DX001 (ip), vehicle: saline) was 102 % of control; the T/C (dose: 4.0 mg/kg/injection, schedule: Q01DX001 (ip), vehicle: saline) is 106 % of control.

Turning to `Cc1ccccc1Nc1n[nH]c(=S)s1`, the T/C was 94 % of control (dose: 50.0 mg/kg/injection, schedule: Q01DX009 (ip), vehicle: saline with Tween-80); 101 % of control (dose: 100.0 mg/kg/injection, schedule: Q01DX009 (ip), vehicle: saline with Tween-80); 97 % of control under setting [13]; 97 % of control (dose: 200.0 mg/kg/injection, schedule: Q01DX009 (ip), vehicle: saline with Tween-80); 95 % of control under setting [14].

With `C(=NCCCN1CCN(CCCN=Cc2ccc3c(c2)OCO3)CC1)c1ccc2c(c1)OCO2`, the T/C runs as follows: (dose: 25.0 mg/kg/injection, schedule: Q01DX Z (ip), vehicle: carboxymethylcellulose (CMC)) 103 % of control; (dose: 50.0 mg/kg/injection, schedule: Q01DX Z (ip), vehicle: carboxymethylcellulose (CMC)) 109 % of control; (dose: 100.0 mg/kg/injection, schedule: Q01DX Z (ip), vehicle: carboxymethylcellulose (CMC)) 100 % of control; (dose: 200.0 mg/kg/injection, schedule: Q01DX Z (ip), vehicle: carboxymethylcellulose (CMC)) 97 % of control.
